The structures appear in SMILES notation.

This is an account of results in patent US20260108512A1, “COMPOUNDS, COMPOSITIONS AND METHODS OF TREATING DISORDERS” (HOTSPOT THERAPEUTICS, INC., priority 2022, published 2026).

T1 sequence (Q13191 40-426): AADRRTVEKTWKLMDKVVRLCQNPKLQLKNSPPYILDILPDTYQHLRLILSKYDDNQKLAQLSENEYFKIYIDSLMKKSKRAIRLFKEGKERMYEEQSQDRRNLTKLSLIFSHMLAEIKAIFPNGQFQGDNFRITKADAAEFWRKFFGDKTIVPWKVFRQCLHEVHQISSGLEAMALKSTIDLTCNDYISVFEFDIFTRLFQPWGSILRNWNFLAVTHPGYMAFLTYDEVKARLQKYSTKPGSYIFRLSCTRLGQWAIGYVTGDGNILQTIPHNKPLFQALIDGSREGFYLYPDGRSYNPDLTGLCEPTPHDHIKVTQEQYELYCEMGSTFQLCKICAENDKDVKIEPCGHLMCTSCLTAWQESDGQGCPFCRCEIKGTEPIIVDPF

This test addresses T1, Cbl-b (Homo sapiens, UniProt Q13191).
T1 construct: biotin (biotinylated protein)
Nature of the test: Cbl-b LCK Ub TR-FRET assay. In kind it is biochemical. Conditions: average IC50, graded A-C; read-out: CBL-B_TR-FRET_AVG_IC50. Here is the method: Compounds are 3-fold serially diluted in DMSO in a 384-well polypropylene plate (e.g., #P-05525-BC; Labcyte) to generate a source plate with 10 concentrations of each compound, top concentration=2 mM. 80 nL of DMSO or compounds are transferred to each well of a black 384-well ProxiPlate (e.g., #6008260; PerkinElmer) using a Labcyte Echo, 1×assay buffer (50 mM HEPES pH7.0, 100 mM NaCl, 0.01% BSA, 0.01% Triton-X100, 1 mM DTT), 2×enzyme solution (16 nM Biotin-Cbl-b or 12 nM Biotin-c-Cbl in 1×assay buffer), 2×kinase mixture (120 nM His-LCK, 1 mM ATP, 10 mM MgCl2 in assay buffer) and 2.33×detection mixture (4.66×solution 1:163 nM Anti-HA-D2 antibody (e.g., #610HADAB:PerkinElmer), 27.96 nM Streptavidin-EU (e.g., #AD0062; PerkinElmer), 1.398 mM EDTA in 1×assay buffer+4.66×solution 2:2.796 pM UBE2D2/Methylated-HA-Ubiquitin thioester adduct (e.g., BostonBiochem) in 1×assay buffer) are prepared. 4 μL of 2×enzyme solution are added to each well containing compound, briefly centrifuged to mix, and incubated for 60 min at room temperature. 4 μL of 2×kinase mixture is added, briefly centrifuged to mix, and incubated for 90 min. at room temperature. 6 μL of detection mixture is added to all wells and briefly centrifuged before incubating for 20 min at room temperature. Plates am read for TR-FRET using an Envision at excitation 340 nm, emission at 615 and 665 nm, 4 flashes per well. IC50 is generated using no LCK as the low control and DMSO as the high control.
In general terms: Time-resolved FRET reads energy transfer from a long-lived donor to a nearby acceptor.
Turning to `Cn1cnnc1[C@H](F)C1(c2cccc(-n3cc4c(C(F)(F)F)cc(CNC5(C)CCC5)cn4c3=O)c2)COC1` (single isomer, unassigned) [Compound 2], the IC50 lay in the range of 501 to 10000 nM.
As for `Cn1cnnc1[C@@H](F)C1(c2cccc(-n3cc4c(C(F)(F)F)cc(CNC5(C)CCC5)cn4c3=O)c2)COC1` (single isomer, unassigned) [Compound 3], the figure is 501 to 10000 nM; as for `Cn1cnnc1[C@@H](F)[C@](C)(F)c1cccc(-n2cc3c(C(F)(F)F)cc(CN4CCC5(CC5)C4)cn3c2=O)c1` (single isomer, unassigned) [Compound 6], less than 100 nM; as for `CC(C)[C@H]1CN(C)CCN1Cc1cc(C(F)(F)F)c2cn(-c3cccc(C4([C@H](F)c5nncn5C)COC4)c3)c(=O)n2c1` (single isomer, unassigned) [Compound 21], less than 100 nM.
`Cn1cnnc1[C@@H](F)[C@](C)(F)c1cccc(-n2cc3c(C(F)(F)F)cc(CN4CCC5(CC5)C4)cn3c2=O)c1` (single isomer, unassigned) [Compound 7]: the IC50 lay in the range of 101 to 500 nM.
In the case of `CC(C)[C@H]1CN(C)CCN1Cc1cc(C(F)(F)F)c2cn(-c3cccc(C4([C@@H](F)c5nncn5C)CC(F)(F)C4)c3)c(=O)n2c1` (single isomer, unassigned) [Compound 12], the IC50 is less than 100 nM.
`Cn1cnnc1[C@@H](F)C1(c2cccc(-n3cc4c(C(F)(F)F)cc(CN5CC(C)(CO)C5)cn4c3=O)c2)COC1` (single isomer, unassigned) [Compound 15]: the IC50 was less than 100 nM.
Take `Cn1cnnc1[C@H](F)C1(c2cccc(-n3cc4c(C(F)(F)F)cc(CN5CC(C)(CO)C5)cn4c3=O)c2)COC1` (single isomer, unassigned) [Compound 14]: the IC50 is 101 to 500 nM.
As to `Cn1cnnc1[C@@H](F)[C@@](C)(F)c1cccc(-n2cc3c(C(F)(F)F)cc(CN4CCC5(CC5)C4)cn3c2=O)c1` [Compound 8], the IC50 is 101 to 500 nM.
`Cn1cnnc1[C@@H](F)C1(c2cccc(-n3cc4c(C(F)(F)F)cc(CN5CCC5)cn4c3=O)c2)COC1` (single isomer, unassigned) [Compound 19]: the IC50 lay in the range of 101 to 500 nM.
In the case of `COC[C@H]1CCCN1Cc1cc(C(F)(F)F)c2cn(-c3cccc(C4([C@H](F)c5nncn5C)COC4)c3)c(=O)n2c1` (single isomer, unassigned) [Compound 10], the IC50 was in the range of 501 to 10000 nM.
On to `CC(C)[C@H]1CN(C)CCN1Cc1cc(C(F)(F)F)c2cn(-c3cccc(C4([C@H](F)c5nncn5C)CC(F)(F)C4)c3)c(=O)n2c1` (single isomer, unassigned) [Compound 13], for which the IC50 is less than 100 nM.
Turning to `CC(C)[C@H]1CN(C)CCN1Cc1cc(C(F)(F)F)c2cn(-c3cccc(C4(Cc5nncn5C(F)F)COC4)c3)c(=O)n2c1` [Compound 1], the IC50 was less than 100 nM.
Regarding `Cn1cnnc1[C@@H](F)C1(c2cccc(-n3cc4c(C(F)(F)F)cc(CN)cn4c3=O)c2)COC1` (single isomer, unassigned) [Compound 5], the IC50 is 101 to 500 nM.
For the molecule `Cn1cnnc1[C@H](F)C1(c2cccc(-n3cc4c(C(F)(F)F)cc(CN5CCC5)cn4c3=O)c2)COC1` (single isomer, unassigned) [Compound 18], the IC50 was less than 100 nM.
Regarding `Cn1cnnc1[C@H](F)C1(c2cccc(-n3cc4c(C(F)(F)F)cc(CN)cn4c3=O)c2)COC1` [Compound 4], the IC50 was 101 to 500 nM.
As for `CC(C)[C@H]1CN(C)CCN1Cc1cc(C(F)(F)F)c2cn(-c3cccc(C4([C@@H](F)c5nncn5C)COC4)c3)c(=O)n2c1` (single isomer, unassigned) [Compound 20], the figure is less than 100 nM; as for `Cn1cnnc1[C@H](F)C1(c2cccc(-n3cc4c(C(F)(F)F)cc(CN5CC6CC5C6)cn4c3=O)c2)COC1` (single isomer, unassigned) [Compound 16], less than 100 nM; as for `Cn1cnnc1[C@@H](F)C1(c2cccc(-n3cc4c(C(F)(F)F)cc(CN5CC6CC5C6)cn4c3=O)c2)COC1` (single isomer, unassigned) [Compound 17], 101 to 500 nM.
As to `COC[C@H]1CCCN1Cc1cc(C(F)(F)F)c2cn(-c3cccc(C4([C@@H](F)c5nncn5C)COC4)c3)c(=O)n2c1` (single isomer, unassigned) [Compound 11], the IC50 was 101 to 500 nM.
As for `Cn1cnnc1[C@H](F)[C@@](C)(F)c1cccc(-n2cc3c(C(F)(F)F)cc(CN4CCC5(CC5)C4)cn3c2=O)c1` [Compound 9], the IC50 was in the range of 501 to 10000 nM.
